According to the NIST ThermoML archive (doi:10.1021/je050200w):
± gives the expanded uncertainty stated by the source.

Test: xn = mol fraction of the nth substance listed
Conditions: 101 kPa, Liquid

CCCCCCCCCCO [decan-1-ol] + CCCCCCCCCCCO
x1 = 1
Conditions | mass density [kg/m3] | viscosity [mPa·s]
293.15 K | 829.9 ± 0.6 | 14.39 ± 0.39
298.15 K | 826.5 ± 0.6 | 11.74 ± 0.33
303.15 K | 823 ± 0.6 | 9.561 ± 0.27
308.15 K | 819.6 ± 0.6 | 8 ± 0.24
313.15 K | 816.3 ± 0.6 | 6.831 ± 0.21

CCCCCCCCCCCO [1-undecanol] + CCCCCCCCCO
Conditions | mass density, 293.15 K [kg/m3] | mass density, 298.15 K [kg/m3] | mass density, 303.15 K [kg/m3] | mass density, 308.15 K [kg/m3] | mass density, 313.15 K [kg/m3] | viscosity, 293.15 K [mPa·s] | viscosity, 298.15 K [mPa·s] | viscosity, 303.15 K [mPa·s] | viscosity, 308.15 K [mPa·s] | viscosity, 313.15 K [mPa·s]
x2 = 0 | 832.2 ± 0.9 | 828.8 ± 0.9 | 825.4 ± 0.9 | 821.7 ± 0.9 | 818.6 ± 0.9 | 17.28 ± 0.48 | 13.72 ± 0.39 | 11.52 ± 0.34 | 9.35 ± 0.28 | 7.841 ± 0.24
x2 = 0.1002 | 831.7 ± 0.9 | 828.3 ± 0.9 | 824.9 ± 0.9 | 821.5 ± 0.9 | 818.1 ± 0.9 | 16.58 ± 0.46 | 13.43 ± 0.38 | 11.15 ± 0.33 | 9.247 ± 0.28 | 7.609 ± 0.24
x2 = 0.1996 | 831.3 ± 0.9 | 827.9 ± 0.9 | 824.5 ± 0.9 | 821.1 ± 0.9 | 817.7 ± 0.9 | 16.08 ± 0.45 | 12.83 ± 0.37 | 10.73 ± 0.32 | 8.926 ± 0.27 | 7.373 ± 0.23
x2 = 0.3004 | 830.9 ± 0.9 | 827.5 ± 0.9 | 824.1 ± 0.9 | 820.7 ± 0.9 | 817.3 ± 0.9 | 15.38 ± 0.43 | 12.55 ± 0.36 | 10.37 ± 0.31 | 8.681 ± 0.26 | 7.298 ± 0.23
x2 = 0.4001 | 830.6 ± 0.9 | 827.2 ± 0.9 | 823.8 ± 0.9 | 820.3 ± 0.9 | 816.9 ± 0.9 | 14.91 ± 0.42 | 11.98 ± 0.35 | 9.973 ± 0.3 | 8.333 ± 0.25 | 7.04 ± 0.22
x2 = 0.5 | 830.2 ± 0.9 | 826.8 ± 0.9 | 823.4 ± 0.9 | 819.9 ± 0.9 | 816.5 ± 0.9 | 14.29 ± 0.4 | 11.52 ± 0.34 | 9.577 ± 0.29 | 8.014 ± 0.25 | 6.872 ± 0.22
x2 = 0.6002 | 829.8 ± 0.9 | 826.4 ± 0.9 | 823 ± 0.9 | 819.5 ± 0.9 | 816.1 ± 0.9 | 13.61 ± 0.39 | 11.32 ± 0.33 | 9.2 ± 0.28 | 7.71 ± 0.24 | 6.627 ± 0.21
x2 = 0.6994 | 830.1 ± 0.9 | 826.6 ± 0.9 | 823.2 ± 0.9 | 819.7 ± 0.9 | 816.3 ± 0.9 | 12.84 ± 0.37 | 10.55 ± 0.31 | 8.746 ± 0.27 | 7.333 ± 0.23 | 6.267 ± 0.2
x2 = 0.7995 | 829.1 ± 0.9 | 825.6 ± 0.9 | 822.2 ± 0.9 | 818.8 ± 0.9 | 815.3 ± 0.9 | 12.68 ± 0.36 | 10.35 ± 0.3 | 8.272 ± 0.25 | 7.133 ± 0.22 | 6.138 ± 0.2
x2 = 0.8988 | – | – | – | 818.1 ± 0.9 | – | – | – | – | 6.897 ± 0.22 | –
x2 = 0.8997 | 828.4 ± 0.9 | 825 ± 0.9 | 821.5 ± 0.9 | – | 814.6 ± 0.9 | 12.13 ± 0.35 | 9.929 ± 0.3 | 8.195 ± 0.25 | – | 5.93 ± 0.19
